Assay results taken from PMC10466336, “Chemical Probe for Imaging of Polo-like Kinase 4 and Centrioles” (JACS Au, 2023).

Key:
[1] = molecular target: T1, Plk4 kinase domain (Homo sapiens, UniProt O00444); assay: Competition binding assay based on fluorescence polarization (tracer Alexa488-PEG-N-centrinone); settings: Alexa488-PEG-N-centrinone 1 nM, Plk4-KD 5 nM
T1 construct: Plasmids encoding fragments of Plk4 kinase domain (2-275) with 6xHis-tag were cloned in pET system vectors; made in house; host or cells: E. coli BL21 gold (DE3)
T1 sequence (O00444 2-275): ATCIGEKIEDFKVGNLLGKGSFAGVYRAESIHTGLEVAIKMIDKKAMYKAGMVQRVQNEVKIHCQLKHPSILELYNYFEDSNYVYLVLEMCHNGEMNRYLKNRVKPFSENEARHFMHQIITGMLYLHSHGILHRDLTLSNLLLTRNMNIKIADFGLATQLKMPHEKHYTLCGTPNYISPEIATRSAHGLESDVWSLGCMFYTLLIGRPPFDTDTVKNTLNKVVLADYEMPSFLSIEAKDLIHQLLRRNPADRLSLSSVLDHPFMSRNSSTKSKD
Excerpt: Moreover, we substituted the basic acetyl-piperazine nitrogen in compounds (1 and 2a) with an acetyl-piperidine, to avoid probe protonation and accumulation in endolysosomal compartments (Figure S1A, B).[23] […] These probes were characterized first in vitro by measuring their fluorogenicity in the presence of the 6xHis-tagged Plk4 kinase domain (KD) (Table 1). […] Next, we measured the binding affinities of the probes to the Plk4 kinase domain via a competition binding assay based on fluorescence polarization. […]
1.3.6 Fluorescence Polarization assay & competition assay […]
plate (Greiner Bio-One). Upon mixture of protein and ligand, the plate was incubated for 30 min at room temperature followed by fluorescence polarization measurements by a plate reader (TECAN Spark® 20M) using 485 nm as excitation wavelength (bandwidth 20 nm) and 535 nm as emission wavelength (bandwidth 25 nm). The obtained fluorescence polarization values from each well were plotted against the concentration of the protein. The apparent Kd values were obtained by fitting the curve to the […]
FP = FP + FPmax ― FPmin (C + C + K ― (C + C + K )2 ― 4C C ) […]
protein should be around the Kd of the tracer to ensure that enough free protein that can bind the […]
competitor, and enough signal change coming from binding and unbinding of the tracer. The solution of the tracer and protein was titrated with increasing amounts of competitors, in our case SiR650- and […]
The mixture was then incubated for an hour at room temperature and the FP was then measured on a plate reader using the same conditions as mentioned before. From the obtained FP values, we have calculated the amount of free protein in the solution for each concentration of competitor using the equation of the single-site binding isotherm:
Pfree = Kd_tracer FP ― FP
Where Pfree is concentration of free protein, Kd tracer represents the previously determined binding affinity

[2] = molecular target: T2, endogenous Plk4 in HeLa cells expressing Centrin1-GFP (Homo sapiens, UniProt O00444); assay: Live- and fixed-cell confocal/STED imaging of endogenous Plk4; type: cell-based; settings: added to live cells in culture, 1 µM (Figure S1)
T2 construct: live cell imaging of endogenous Plk4; endogenous in cells; host or cells: HeLa cells stably expressing Centrin1-GFP
T2 sequence (O00444 1-970): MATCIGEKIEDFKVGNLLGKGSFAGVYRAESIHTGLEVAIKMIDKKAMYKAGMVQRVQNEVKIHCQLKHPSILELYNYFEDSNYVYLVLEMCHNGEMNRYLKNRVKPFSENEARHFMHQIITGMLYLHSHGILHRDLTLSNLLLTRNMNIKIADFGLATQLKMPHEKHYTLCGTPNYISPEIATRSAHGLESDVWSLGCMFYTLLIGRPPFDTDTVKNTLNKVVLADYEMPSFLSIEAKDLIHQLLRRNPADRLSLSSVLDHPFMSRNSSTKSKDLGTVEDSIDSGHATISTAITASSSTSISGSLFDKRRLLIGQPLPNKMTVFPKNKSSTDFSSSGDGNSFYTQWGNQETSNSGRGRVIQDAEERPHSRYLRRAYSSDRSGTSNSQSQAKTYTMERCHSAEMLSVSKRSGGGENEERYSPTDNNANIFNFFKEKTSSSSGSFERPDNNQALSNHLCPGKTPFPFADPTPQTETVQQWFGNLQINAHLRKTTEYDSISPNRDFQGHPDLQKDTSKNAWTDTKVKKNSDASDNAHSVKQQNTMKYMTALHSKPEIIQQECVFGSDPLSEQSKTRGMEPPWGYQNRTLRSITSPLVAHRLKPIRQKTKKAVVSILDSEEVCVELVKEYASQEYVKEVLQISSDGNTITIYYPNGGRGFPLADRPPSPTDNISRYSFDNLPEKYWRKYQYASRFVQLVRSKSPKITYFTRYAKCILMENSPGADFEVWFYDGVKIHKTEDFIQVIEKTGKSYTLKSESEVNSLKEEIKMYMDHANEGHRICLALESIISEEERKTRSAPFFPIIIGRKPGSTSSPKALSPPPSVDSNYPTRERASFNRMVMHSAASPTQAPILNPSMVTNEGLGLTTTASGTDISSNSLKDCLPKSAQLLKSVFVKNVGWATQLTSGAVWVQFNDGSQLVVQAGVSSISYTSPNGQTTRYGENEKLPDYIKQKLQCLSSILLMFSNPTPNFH

[3] = molecular target: T3, 6xHis-tagged Plk4 kinase domain (KD) (Homo sapiens, UniProt O00444); assay: Estimation of fluorescence increase (fluorogenicity) with Plk4 kinase domain versus BSA; settings: mean of F(+Plk4KD)/F(+BSA) and standard deviation, N = 3; probe 3 µM, 1 h 37 °C
T3 construct: Plasmids encoding fragments of Plk4 kinase domain (2-275) with 6xHis-tag were cloned in pET system vectors; made in house; host or cells: E. coli BL21 gold (DE3)
T3 sequence (O00444 2-275): T1 sequence (O00444 2-275)
Excerpt: Moreover, we substituted the basic acetyl-piperazine nitrogen in compounds (1 and 2a) with an acetyl-piperidine, to avoid probe protonation and accumulation in endolysosomal compartments (Figure S1A, B).[23] This yielded a second generation of centrinone-based probes (compounds 2b–d). These probes were characterized first in vitro by measuring their fluorogenicity in the presence of the 6xHis-tagged Plk4 kinase domain (KD) (Table 1). […] Next, we measured the binding affinities of the probes to the Plk4 kinase domain via a competition binding assay based on fluorescence polarization. […]
1.3.5 Estimation of fluorescence increase
The probes were analysed as described in Lukinavičius et al. 2014 1. Briefly, SiR650 or SiR595- […]
purified Plk4 kinase domain (10 µM in 20 mM Tris, 200 mM NaCl at pH 7.5) or to a bovine serum albumin (BSA) (Sigma) solution (0.2 mg/mL in 20 mM Tris, 200 mM NaCl at pH 7.5). Final concentration of the probe was 3 µM. The samples were incubated for 1 h at 37 °C, and fluorescence was measured in a 96-well plate (Greiner Bio-One) on a plate reader (TECAN Spark® 20M).
Fluorescence emission was recorded from 570 nm to 750 nm for SiR595 probes, and 630 nm to 750 nm for SiR650 while exciting at 550 nm ± 10 nm for SiR595 probes and at 610 ± 10 nm for SiR650 probes.
A fluorescence excitation scan was recorded by measuring the emission at 660 ± 10 nm for SiR595 and 720 ± 10 nm for SiR650 probes, while exciting from 500 nm to 640 nm for SiR595 probes and from […]

[4] = test system: HeLa cells expressing Centrin1-GFP; assay: Centriole phenotypic scoring (number of Centrin1-GFP foci); type: cell-based, human; settings: 24 h incubation, scoring of Centrin1-GFP foci
Excerpt: Having established that SiR595-centrinone (2d) can successfully label overexpressed Plk4, we wanted to investigate whether it also marks endogenous Plk4. […] In contrast, partial Plk4 inhibition leads to increased levels of centriolar Plk4 due to partial interference with protein degradation mediated by autophosphorylation, overall resulting in centriole overamplification.[8] Therefore, both under-duplication and overamplification of centrioles can be used as a proxy for SiR595-centrinone binding to endogenous Plk4. […] We conclude that the failure of SiR595-centrinone (2d) to detect endogenous Plk4 is due to the low binding affinity of the probe in combination with low protein levels. […] In the second step, the Plk4-bound molecule is specifically reacted with an appropriate fluorogenic tetrazine dye.[27]−[33] This strategy was applied previously successfully to label various protein targets in live and fixed cells,[30],[32],[34]−[38] and we reasoned that a smaller and potentially more permeable Cen-TCO (3) derivative would likewise enable more efficient labeling of endogenous Plk4.
We conjugated trans-cyclooctene to the previously obtained compound (4) to obtain Cen-TCO (3) using the synthetic route outlined in Scheme S2. The resulting Cen-TCO (3) reacted with an appropriate tetrazine, such as SiR650-TetH (4a) (Figure S4A). The reaction was followed by LC-MS, and the data confirmed quantitative conversion of Cen-TCO (3) to the appropriate cycloaddition product Cen-Click-SiR650 (Figure S4A, D). […] To assess the phenotype caused by Cen-TCO (3), we incubated HeLa cells expressing Centrin1-GFP with different concentrations of Cen-TCO (3) for 24 h, followed by scoring of Centrin1-GFP foci numbers (Figure S5B). […] Despite the high unspecific background signal, a clear focus could be detected at centrioles (Figure 4B). […] The fwhm of the circular signal in this case was 368 ± 26 (N = 6) (Figure S7B), which corresponds to the size measured with overexpressed GFP-Plk4(K41M) (see Figure 3D), and approximately that of the torus region surrounding the centriole.[40] […]

| Structure (SMILES) | Kd [1] [nM] | unspecific labeling in live human cells [2] | FPIk4/FBSA [3] | concentration causing the centriole under-duplication phenotype [4] [nM] |
| --- | --- | --- | --- | --- |
| COc1c(Nc2cc(C)[nH]n2)nc(Sc2ccc(S(=O)(=O)Cc3cccc([N+](=O)[O-])c3F)cc2F)nc1N1CCN(CC(=O)NCCOCCNC(=O)c2ccc(C(=O)O)c(C3=C4C=CC(=N)C=C4[Si](C)(C)c4cc(N)ccc43)c2)CC1 [2a] | 26 ± 3 | high unspecific labeling | 10 ± 1 | – |
| COc1c(Nc2cc(C)[nH]n2)nc(Sc2ccc(S(=O)(=O)Cc3cccc([N+](=O)[O-])c3F)cc2F)nc1N1CCC(CC(=O)NCCOCCNC(=O)c2ccc(C(=O)O)c(C3=C4C=CC(=N)C=C4[Si](C)(C)c4cc(N)ccc43)c2)CC1 [2b] | 14 ± 4 | – | 23 ± 1 | – |
| COc1c(Nc2cc(C)[nH]n2)nc(Sc2ccc(S(=O)(=O)Cc3cccc([N+](=O)[O-])c3F)cc2F)nc1N1CCC(CC(=O)NCCCCNC(=O)c2ccc(C(=O)O)c(C3=C4C=CC(=N)C=C4[Si](C)(C)c4cc(N)ccc43)c2)CC1 [2c] | 23 ± 6 | – | 14 ± 2 | – |
| COc1c(Nc2cc(C)[nH]n2)nc(Sc2ccc(S(=O)(=O)Cc3cccc([N+](=O)[O-])c3F)cc2F)nc1N1CCOCC1 [centrinone, reference compound] | – | – | – | ≥ 250 |
| COc1c(Nc2cc(C)[nH]n2)nc(Sc2ccc(S(=O)(=O)Cc3cccc([N+](=O)[O-])c3F)cc2F)nc1N1CCN(CC(=O)NCCOCCNC(=O)c2ccc(C(=O)[O-])c(C3=C4C=CC(=[N+](C)C)C=C4[Si](C)(C)c4cc(N(C)C)ccc43)c2)CC1 [compound 1] | 48 ± 6 | high unspecific labeling | 4 ± 1 | – |
